Laboratory results from patent US6552048B2, “Sulfonylcarboxamide derivatives, process for their preparation and their use as pharmaceuticals” (Aventis Pharma Deutschland GmbH, priority 1999, dated 2003).

Tests used:
[1] = tested on: human LDL receptor gene promoter region coupled to firefly Luciferase reporter gene in Hep-G2 cell line; test: In vitro determination of LDL receptor induction using the Luciferase assay; type: cell-based; details: for LDL-receptor induction in %, compared with control: comparative test
Method: 1) In vitro Determination of LDL Receptor Induction Using the Luciferase Assay
LDL-receptor induction is determined using the Luciferase assay as follows: for this purpose, a regulatory DNA fragment (4 kb) of the human LDL receptor gene which contains the complete promoter region is coupled to the firefly Luciferase reporter gene and stably transfixed into a Hep-G2 cell line. Cells from this line were seeded out on collagen-coated 96-well plates in MEM (minimum essential medium). After 24 hours in culture, the test substances, dissolved in DMSO, were added in final concentrations of 10 nM to 10 μM (final DMSO concentration=2%). The substances were incubated for 12-18 hours overnight (4 wells/conc. in each case), then D-luciferin was added as substrate for the Luciferase, and the luminescence was measured. The measured luminescence as a percentage of the control (control=100%) incubated only with DMSO indicates the extent of the relative LDL-receptor induction (Table 2).
Further details of the method are described in: Current Protocols in Molecular Biology, F. M. Ausubel, R. Brent, R. E. Kingston, D. D. Moore, J. G. Seidman, J. A. Smith and Kevin Struhl editors, J. Wiley and Sons Inc., U.S.A.
A comparative test was carried out by the Luciferase assay described above using 2,4-dichloro-5-(3,5-dimethylpiperidinosulfamoyl)benzoic acid and the compound from Example 42. [drawing 8]

hyperlipidemic hamsters = test: In vivo determination of reduction in LDL cholesterol in hyperlipemic hamsters; set-up: species or system male Syrian hamsters; details: vs placebo-treated control
From the text: 2) In vivo Determination of Reduction in LDL Cholesterol in Hamsters.
Cholesterol-lowering effect of LDL-receptor inducers in hyperlipemic hamsters
In this animal experiment, the effect of LDL-receptor inducers after bolus administration to hamsters on a lipid-rich diet was investigated.
The test animals used were male Syrian hamsters (Charles River) with an average body weight of 100-120 g at the start of adaptation. The animals were divided into groups (n=6) on the basis of body weight. Severe hyperlipidemia was induced by feeding with a diet supplemented with 15% butter and 3% cholesterol. The treatment started after preliminary feeding for 2 weeks. The test substances were administered orally by gavage once a day over a period of 10 days. The plasma lipid level was analyzed after 10 days.

[2] = test compound 1.5 μM, control (DMSO only)=100%, Hep-G2 reporter line
[3] = test compound 0.15 μM, control (DMSO only)=100%, Hep-G2 reporter line
[4] = test compound 0.05 μM, control (DMSO only)=100%, Hep-G2 reporter line
[5] = 20 mg/kg p.o. once a day for 10 days
[6] = 10 mg/kg p.o. once a day for 10 days
[7] = 40 mg/kg p.o. once a day for 10 days
[8] = test compound 0.15 μM, control (DMSO only)=100%, Hep-G2 reporter line, 0.15 µM

## CN1CCN(c2cc(NCCCc3ccccc3)c(S(=O)(=O)N(C)c3ccccc3)cc2C(=O)N(C)c2ccccc2)CC1 [Example 2]
[1]; [2]
  LDL-receptor induction (% of control): 225% (1.5 μM)

## CN1CCN(c2cc(NCCc3ccccc3)c(S(=O)(=O)N(C)c3ccccc3)cc2C(=O)N(C)c2ccccc2)CC1 [Example 3]
[1]; [2]
  LDL-receptor induction (% of control): 276% (1.5 μM)

## CN1CCN(c2cc(NC3CCN(Cc4ccccc4)CC3)c(S(=O)(=O)N(C)c3ccccc3)cc2C(=O)N(C)c2ccccc2)CC1 [Example 4]
[1]; [3]
  LDL-receptor induction (% of control): 190% (0.15 μM)

## CN1CCN(c2cc(N3CCC(Cc4ccccc4)CC3)c(S(=O)(=O)N(C)c3ccccc3)cc2C(=O)N(C)c2ccccc2)CC1 [Example 9]
[1]; [3]
  LDL-receptor induction (% of control): 170% (0.15 μM)

## CN1CCN(c2cc(NC3CCN(Cc4ccccc4)CC3)c(S(C)(=O)=O)cc2C(=O)N(C)c2ccccc2)CC1 [Example 14]
[1]; [2]
  LDL-receptor induction (% of control): 176% (1.5 μM)

## CN(C(=O)c1cc(S(=O)(=O)N(C)c2ccccc2)c(N2CCC(Cc3ccccc3)CC2)cc1NCCN1CCCC1)c1ccccc1 [Example 22]
[1]; [3]
  LDL-receptor induction (% of control): 224% (0.15 μM)

## CN(C(=O)c1cc(S(=O)(=O)N(C)c2ccccc2)c(N2CCC(c3ccccc3)CC2)cc1NCCN1CCCC1)c1ccccc1 [Example 25]
[1]; [4]
  LDL-receptor induction (% of control): 152%
[1]; [2]
  LDL-receptor induction (% of control): 346%

## CN1CCN(c2cc(N3CCC(Cc4ccccc4)CC3)c(S(C)(=O)=O)cc2C(=O)N2CCCCC2)CC1 [Example 30]
[1]; [3]
  LDL-receptor induction (% of control): 199%
[1]; [2]
  LDL-receptor induction (% of control): 255%

## COCCCNC(=O)c1cc(S(C)(=O)=O)c(N2CCC(c3ccccc3)CC2)cc1N1CCN(C)CC1 [Example 34]
[1]; [3]
  LDL-receptor induction (% of control): 210%
[1]; test compound 4 μM, control (DMSO only)=100%, Hep-G2 reporter line
  LDL-receptor induction (% of control): 291%

## CN1CCN(c2cc(N3CCC(c4ccccc4)CC3)c(S(=O)(=O)N3CCCCC3)cc2C(=O)N2CCCCC2)CC1 [Example 37]
[1]; [3]
  LDL-receptor induction (% of control): 204%
[1]; [2]
  LDL-receptor induction (% of control): 227%
Hyperlipidemic hamsters; [5]
  Relative change in plasma LDL cholesterol: −31%
  Relative change in plasma total cholesterol: −21%
  Relative change in plasma triglycerides: −46%

## CCN(CC)C(=O)c1cc(S(=O)(=O)Cc2ccccc2)c(N2CCC(c3ccccc3)CC2)cc1N(CC)CCN(C)C [Example 42, 2-[(2-Dimethylaminoethyl)ethylamino]-N,N-diethyl-5-phenylmethane-sulfonyl-4-(4-phenylpiperidin-1-yl)benzamide]
[1]; Homo sapiens, HepG2, test compound 0.05 μM, control (DMSO only)=100%, Hep-G2 reporter line
  activity at 0.05 µM: 149%
[1]; 0.05 μM
  LDL-receptor induction in %, compared with control: 204%
[1]; 0.15 μM
  LDL-receptor induction in %, compared with control: 219%
[1]; 1.5 μM
  LDL-receptor induction in %, compared with control: 250%
[1]; 4 μM
  LDL-receptor induction in %, compared with control: 278%

## CCCCCNC(=O)c1cc(S(C)(=O)=O)c(N2CCC(Cc3ccccc3)CC2)cc1NCCN1CCCC1 [Example 53]
[1]; [4]
  LDL-receptor induction (% of control): 197%
[1]; [3]
  LDL-receptor induction (% of control): 221%
Hyperlipidemic hamsters; [6]
  Relative change in plasma LDL cholesterol: −52%
  Relative change in plasma total cholesterol: −7%
  Relative change in plasma triglycerides: +21%
Hyperlipidemic hamsters; [5]
  Relative change in plasma LDL cholesterol: −57%
  Relative change in plasma total cholesterol: −16%
  Relative change in plasma triglycerides: −11%
Hyperlipidemic hamsters; [7]
  Relative change in plasma LDL cholesterol: −58%
  Relative change in plasma total cholesterol: −17%
  Relative change in plasma triglycerides: −23%

## CCCCCNC(=O)c1cc(S(C)(=O)=O)c(N2CCC(c3ccccc3)CC2)cc1NCCN1CCCC1 [Example 54]
[1]; [8]
  LDL-receptor induction (% of control): 223% (0.15 μM)

## COCCCNC(=O)c1cc(S(C)(=O)=O)c(N2CCC(Cc3ccccc3)CC2)cc1NCCN1CCCC1 [Example 57]
[1]; [3]
  LDL-receptor induction (% of control): 222% (0.15 μM)

## COCCCNC(=O)c1cc(S(C)(=O)=O)c(N2CCC(Cc3ccccc3)CC2)cc1N(C)CCN(C)C [Example 62]
[1]; [4]
  LDL-receptor induction (% of control): 205% (0.05 μM)

## CN(C)CCN(C)c1cc(N2CCC(Cc3ccccc3)CC2)c(S(C)(=O)=O)cc1C(=O)N1CCCCC1 [Example 67]
[1]; [3]
  LDL-receptor induction (% of control): 203% (0.15 μM)

## CCCCCNC(=O)c1cc(S(=O)(=O)Cc2ccccc2)c(N2CCC(c3ccc(F)cc3)CC2)cc1N(CC)CCN(C)C [Example 76]
[1]; [3]
  LDL-receptor induction (% of control): 244% (0.15 μM)

## CCCCCNC(=O)c1cc(S(=O)(=O)Cc2ccccc2)c(N2CCC(c3ccc(C)cc3)CC2)cc1N(CC)CCN(C)C [Example 78]
[1]; [3]
  LDL-receptor induction (% of control): 200% (0.15 μM)

## CCN(CC)C(=O)c1cc(S(=O)(=O)Cc2ccc(F)cc2F)c(N2CCC(c3ccccc3)CC2)cc1N(CC)CCN(C)C [Example 82]
[1]; [3]
  LDL-receptor induction (% of control): 227% (0.15 μM)

## CCN(CC)C(=O)c1cc(S(=O)(=O)Cc2ccc(C)cc2)c(N2CCC(c3ccccc3)CC2)cc1NCCN1CCCC1 [Example 83]
[1]; [3]
  LDL-receptor induction (% of control): 212% (0.15 μM)

## CCN(CC)C(=O)c1cc(S(=O)(=O)Cc2cccc(OC)c2)c(N2CCC(c3ccccc3)CC2)cc1NCCN1CCCC1 [Example 84]
[1]; [4]
  LDL-receptor induction (% of control): 240% (0.05 μM)

## CCN(CC)C(=O)c1cc(S(=O)(=O)Cc2cccc(OC(F)(F)F)c2)c(N2CCC(c3ccccc3)CC2)cc1NCCN1CCCC1 [Example 91]
[1]; [4]
  LDL-receptor induction (% of control): 231% (0.05 μM)

## CCN(CC)C(=O)c1cc(S(=O)(=O)Cc2cc(OC)cc(OC)c2)c(N2CCC(c3ccccc3)CC2)cc1N(CC)CCN(C)C [Example 96]
[1]; [4]
  LDL-receptor induction (% of control): 196% (0.05 μM)

## CCN(CCN(C)C)c1cc(N2CCC(c3ccccc3)CC2)c(S(=O)(=O)Cc2ccccc2)cc1C(=O)NCCCCCO [Example 107]
[1]; [4]
  LDL-receptor induction (% of control): 288% (0.05 μM)

## CCN(CC)C(=O)c1cc(S(=O)(=O)Cc2ccc(C(F)(F)F)cc2)c(N2CCC(c3ccccc3)CC2)cc1N(CC)CCN(C)C [Example 113]
[1]; [4]
  LDL-receptor induction (% of control): 217% (0.05 μM)

## CCN(CC)C(=O)c1cc(S(=O)(=O)Cc2ccc(C#N)cc2)c(N2CCC(c3ccccc3)CC2)cc1N(CC)CCN(C)C [Example 116]
[1]; [4]
  LDL-receptor induction (% of control): 235% (0.05 μM)

## CCCCCNC(=O)c1cc(S(C)(=O)=O)c(N2CCC(c3ccccc3)CC2)cc1NCCN1CCCC1.CS(=O)(=O)O [Example 141, 2-[NH-Ethyl-N-pyyrolidinyl]-NH-pentyl-5-methylsulfonyl-4-(4-phenylpiperidin-1-yl)benzamide]
[1]; [3]
  LDL-receptor induction (% of control): 280% (0.15 μM)

## CCCCCNC(=O)c1cc(S(C)(=O)=O)c(N2CCC(c3ccccc3)CC2)cc1NCCN1CCCC1.Cc1ccc(S(=O)(=O)O)cc1 [Example 142, 2-[NH-Ethyl-N-pyrrolidinyl]-NH-pentyl-5-methylsulfonyl-4-(4-phenylpiperidin-1-yl)benzamide]
[1]; [3]
  LDL-receptor induction (% of control): 281% (0.15 μM)

## CCCCCNC(=O)c1cc(S(C)(=O)=O)c(N2CCC(c3ccccc3)CC2)cc1NCCN1CCCC1 [Example 143, 2-[NH-Ethyl-N-pyrrolidinyl]-NH-pentyl-5-methylsulfonyl-4-(4-phenylpiperidin-1-yl)benzamide]
[1]; [8]
  LDL-receptor induction (% of control): 308% (0.15 μM)

## CC1CC(C)CN(S(=O)(=O)c2cc(C(=O)O)c(Cl)cc2Cl)C1 (stereo not drawn) [reference compound]
[1]; 0.05 μM
  LDL-receptor induction in %, compared with control: 94%
[1]; 0.15 μM
  LDL-receptor induction in %, compared with control: 90%
[1]; 1.5 μM
  LDL-receptor induction in %, compared with control: 90%
[1]; 4 μM
  LDL-receptor induction in %, compared with control: 100%
